“Also recorded” adds a separate entry of the source.
How the values were obtained:
[1] = test system: MB-468 triple-negative breast cancer cells; test: MB-468 orthotopic murine model for metastatic breast cancer of the brain; type: in vivo, athymic mice; settings: for Median Survival (Day) Breast Cancer (MB-468): control 52; for survival (Kaplan-Meier) vs control, MB-468 model / tumor growth (BLI) vs control, MB-468 model: all treatment groups (2.5 or 5 mg/kg i.p. daily for 4 days); for tolerability, MB-468 model: both dose levels (2.5 and 5 mg/kg)
Experimental: (§1) Female athymic mice (8-10 weeks old and weighing 20-25 g at the beginning of the study) were purchased from Harlan laboratories (Indianapolis, Ind.). They were housed in a temperature-controlled sterilized room (23±2° C.) with a 12-h light/dark cycle and free access to food and water throughout the study.
(§2) Murine brain tumor models were created by intracerebral injection of luciferase-transfected cancer cells in athymic mice under anesthesia using a stereotactic platform. For murine model for CNS lymphoma, 1×10^5 OCI-LY10 B lymphoma cells were used. For murine model for metastatic breast cancer of the brain (MBCB), 1×10^5 MB-468 triple-negative breast cancer cells were used. For murine model for glioblastoma multiforme (GBM), 1.75×10^5 U87 cells were used. Eight-week-old athymic mice underwent a minimum 7-day acclimation/quarantine prior to surgery. Surgery was performed in a laminar flow hood under sterile conditions. Tylenol 300 mg/kg PO was given for analgesia 48 hours before the surgery and continuing 48 hours postoperatively. Anesthesia was achieved by inhalation of 1-2% isoflurane. After the mouse became well anesthetized, it was placed in the Kopf stereotactic instrument. A small amount of BNP antibiotic cream (a mixture of Bacitracin, Neomycin and Polymyxin) was smeared on its eyes to prevent infection and corneal damage during surgery. A strip of soft fabric was placed over the mouse's body and tail to prevent excessive heat loss during surgery. The scalp area was cleaned with a 2% solution of Betadine and dried with cotton tipped applicator. A midline sagittal incision was made in the scalp. A small burr hole was drilled in the left skull with a surgical drill (Kopf) or a Dremel drill according to the coordinates (AP: 0.5 mm, LM: 2.5 mm) as determined by reference to the mouse brain atlas by Franklin and Paxinos. The dura mater was surgically exposed, and a 10 μl Hamilton syringe with a 26S-gauge beveled needle was lowered into the left cerebral hemisphere up to a depth of 3 mm and 5 μl of tumor cells were slowly infused (0.5 μl/min). The needle was left in place for 5 minutes to prevent reflux and then was slowly removed. The skin was closed with wound clips. The mice recovered from anesthesia and surgery in a warm environment and were not returned to their cages until motor activity returned. Cages were placed on top of a heating pad to minimize the loss of body heat during the recovery. The mice were monitored post-operatively at least twice a day for 5 days or until recovery was complete.
(§3) BLI was used to assess the impact of the treatments on the brain tumor growth. After intracerebral injection of cancer cells, all the mice were subjected to bioluminesence imaging (BLI) twice a week starting at day-4 post-intracerebral injection to monitor the real-time in vivo tumor growth. BLI was conducted using a Xenogen Lumina optical imaging system (Caliper Life Sciences, Hopkinton, Mass.). Mice were anesthetized with isofluorane before intraperitoneal injections of luciferin at a dose of 150 mg/kg, providing a saturating substrate concentration for luciferase enzyme. Peak luminescent signals were recorded 10 minutes after luciferin injection. Regions of interest encompassing the intracranial area of signal were defined using Living Image software (Xenogen, Alameda, Calif.), and the total photons/s/steradian/cm2 was recorded.
(§4) Five mice each were assigned to one of seven treatment groups or one vehicle control group for all three brain tumor models. Mice in experimental groups received either 2.5 mg/kg or 5 mg/kg of AA, CEAA, or DCEAA by intraperitoneal route daily for 4 days. For CAA, only 2.5 mg/Kg by intraperitoneal route daily for 4 days was used. The control group received DMSO by intraperitoneal route for 4 days. The end point for the survival analysis was the development of limb paralysis. Animals were checked at least twice per day. Animals that reached the end point were sacrificed by CO2 anesthesia. […]

[2] = test system: T47D; test: Cell proliferation assay T47D (Example 6); type: cell-based; settings: Homo sapiens, T47D; cells counted on the sixth day
Experimental: (§5) In-vitro assays were performed to assess the cytotoxic impact of AA analogues on breast cancer cell lines (MB-468, MB-453, and T47D), lymphoma cell lines (Raji and OCI-LY10), and glioblastoma multiforme cell line (U87). The three breast cancer cell lines represent three subtypes of breast cancer: triple-negative (MB-468), Her2-positive (MB-453), and hormone receptor positive (T47D).
(§6) The IC50 values obtained for each compound represents the concentration of the tested compound that is needed to decrease the cancer cell count by 50%. Cancer cells were seeded in triplicate at 50,000 cells per well of a 24-well plate in 0.5 ml medium. […] Cells were harvested and counted on the sixth day using a Beckman Coulter counter.

[3] = test system: MB-453; test: Cell proliferation assay MB-453 (Example 6); type: cell-based; settings: cells counted on the sixth day
Experimental: as §5, §6

[4] = test system: U87 cells; test: U87 orthotopic murine model for glioblastoma multiforme; type: in vivo; settings: for Median Survival (Day) GBM (U-87): control 25.5; for survival (Kaplan-Meier) vs control, U87 model / tumor growth (BLI) vs control, U87 model: all treatment groups (2.5 or 5 mg/kg i.p. daily for 4 days); for tolerability, U87 model: both dose levels (2.5 and 5 mg/kg)
Experimental: as §1, §2, §3, §4

[5] = test system: Raji B cells (Burkitt's lymphoma cells); test: Cytotoxicity, cell count, Raji (Example 4); settings: Homo sapiens, Raji, read-out: Cytotoxicity (IC50, μM) Raji
Experimental: (§7) Raji cells and MB-468 cells were purchased from American Tissue Culture (Manassas, Va.). […] Cells were harvested and counted on the third day in a Coulter Particle Counter (Beckman-Coulter Corp.: Brea, Calif.). IC50 values were calculated using GraphPad Prism 5 (GraphPad Software Inc., La Jolla, Calif.).

[6] = test system: OCI-LY10 B lymphoma cells; test: OCI-LY10 orthotopic murine CNS lymphoma model; type: in vivo; settings: for Median Survival (Day) CNS Lymphoma (OCI-LY10): control 35; for survival (Kaplan-Meier) vs control, OCI-LY10 model / tumor growth (BLI) vs control, OCI-LY10 model: all treatment groups (2.5 or 5 mg/kg i.p. daily for 4 days); for tolerability, OCI-LY10 model: both dose levels (2.5 and 5 mg/kg)
Experimental: as §1, §2, §3, §4

[7] = test system: U87; test: Cell proliferation assay U87 (Example 6); type: cell-based; settings: Homo sapiens, U-87 MG; cells counted on the sixth day
Experimental: as §5, §6

[8] = test system: Raji; test: Cell proliferation assay Raji (Example 6); type: cell-based; settings: Homo sapiens, Raji; cells counted on the sixth day
Experimental: as §5, §6

[9] = test system: MB-468; test: Cell proliferation assay MB-468 (Example 6); type: cell-based; settings: cells counted on the sixth day
Experimental: as §5, §6

[10] = test system: DU145 prostate cancer cells; test: Cytotoxicity, MTT method, DU145; settings: Homo sapiens, DU-145, 24 h, read-out: Cytotoxicity (IC50, μM) DU145
Experimental: The cell suspension in the culture medium was plated into each well of 96-well plates (10,000 cells/well/100 μL). After 24 h, testing compounds were added, and then the plates were incubated for an additional 24 h in a humidified atmosphere of 5% CO2 at 37° C. […] The IC50 value was determined by linear interpolation from the growth inhibition curve.

[11] = test system: MB-468 (triple-negative breast cancer cells); test: Cytotoxicity, cell count, MB-468 (Example 4); settings: read-out: Cytotoxicity (IC50, μM) MB-468
Experimental: as §7

[12] = test system: OCI-LY10; test: Cell proliferation assay OCI-LY10 (Example 6); type: cell-based; settings: Homo sapiens, OCI-Ly10; cells counted on the sixth day
Experimental: as §5, §6

[13] = 2.5 mg/kg intraperitoneal daily for 4 days
[14] = 5 mg/kg intraperitoneal daily for 4 days

Row | Compound | Median Survival (Day) Breast Cancer (MB-468) [1, 13] | survival (Kaplan-Meier) vs control, MB-468 model [1] | tumor growth (BLI) vs control, MB-468 model [1] | IC50 [2] | IC50 [3] | Median Survival (Day) GBM (U-87) [4, 13] | survival (Kaplan-Meier) vs control, U87 model [4] | tumor growth (BLI) vs control, U87 model [4] | IC50 [5] | Median Survival (Day) CNS Lymphoma (OCI-LY10) [6, 13] | survival (Kaplan-Meier) vs control, OCI-LY10 model [6] | tumor growth (BLI) vs control, OCI-LY10 model [6] | IC50 [7] | IC50 [8] | IC50 [9] | IC50 [10] | IC50 [11] | IC50 [12] | Median Survival (Day) Breast Cancer (MB-468) [1, 14] | tolerability, MB-468 model [1] | also measured
1 | CN1C(=O)N[C@H]2[C@@H]3NC(=O)c4ccc(Cl)n4[C@@H]3C[C@]21O [CAA, chloroagelastatin A] | 75 days | significantly prolonged survival | significantly decreased tumor growth | 29.8 nM | 91.9 nM | 31 days | significantly prolonged survival; also recorded: prolongation of survival | significantly decreased tumor growth; also recorded: significantly slower | 0.18 µM | 49 days | significantly prolonged survival; also recorded: prolongation of survival | significantly decreased tumor growth; also recorded: significantly slower | 96.6 nM | 181 nM | 81.1 nM | 1.2 µM | 0.08 µM | 102 nM | – | – | weight loss, MB-468 model ([1]; 2.5 mg/kg): Some weight loss; weight loss, U87 model ([4]; 2.5 mg/kg): Some weight loss; weight loss, OCI-LY10 model ([6]; 2.5 mg/kg): Some weight loss
2 | CCN1C(=O)N[C@H]2[C@@H]3NC(=O)c4ccc(Cl)n4[C@@H]3C[C@]21O [CEAA, chloroethylagelastatin A] | 56 days | significantly prolonged survival; also recorded: prolongation of survival | significantly decreased tumor growth; also recorded: significantly slower | 20.7 nM | 141 nM | 29 days | significantly prolonged survival; also recorded: prolongation of survival | significantly decreased tumor growth; also recorded: significantly slower | 0.3 µM | 57 days | significantly prolonged survival; also recorded: prolongation of survival | significantly decreased tumor growth; also recorded: significantly slower | 109 nM | 296 nM | 277 nM | 2.6 µM | 0.28 µM | 119 nM | 64 days | well tolerated | Median Survival (Day) GBM (U-87) [4, 14]: 31 days; tolerability, U87 model [4]: well tolerated; Median Survival (Day) CNS Lymphoma (OCI-LY10) [6, 14]: 65 days; tolerability, OCI-LY10 model [6]: well tolerated
3 | CCN1C(=O)N[C@H]2[C@@H]3NC(=O)c4cc(Cl)c(Cl)n4[C@@H]3C[C@]21O [DCEAA, dichloroethylagelastatin A] | 61 days | significantly prolonged survival; also recorded: prolongation of survival | significantly decreased tumor growth; also recorded: significantly slower | 101 nM | 104 nM | 30 days | significantly prolonged survival; also recorded: prolongation of survival | significantly decreased tumor growth; also recorded: significantly slower | 0.62 µM | 60 days | significantly prolonged survival; also recorded: prolongation of survival | significantly decreased tumor growth; also recorded: significantly slower | 256 nM | 619 nM | 444 nM | 1.4 µM | 0.44 µM | 429 nM | 75 days | well tolerated | Median Survival (Day) GBM (U-87) [4, 14]: 34 days; tolerability, U87 model [4]: well tolerated; Median Survival (Day) CNS Lymphoma (OCI-LY10) [6, 14]: 69 days; tolerability, OCI-LY10 model [6]: well tolerated
